From article PMC10820089, “Comparative Studies on the Photoreactivity, Efficacy, and Safety of Depigmenting Agents” (Pharmaceuticals, 2023)
Where “and” joins values, the source holds several entries; their conditions need not be identical. Equal entries are not always repeated. Where two headings read alike, the source gives them in different places.

What was measured:
[1] = UV-visible spectral analysis, molar extinction coefficient (MEC); assay type: physicochemical; details: at 290 nm; for Absorbance (10 µg mL^−1): 10 µg mL^−1 in methanol or 20 mM NaPB pH 7.4, 10 mm path length
Description: The phototoxic potential of chemicals is related to the photochemical properties of compounds, especially light absorption within the range 290–700 nm and the generation of reactive species following absorption of UV-visible light. […] The studied depigmenting agents contain in their molecular structures π systems (some of them conjugated), phenolic and/or hydroxyl, carbonyl, and amine groups. The absorption peaks observed in the UV-visible spectra can be assigned to π-π* and n-π* electronic transitions.
As the wavelength of maximum absorbance obtained for all compounds was below 290 nm, the MEC value for each depigmenting compound was calculated at this wavelength (Table 1).
UV-visible spectral analysis was conducted as previously described. The depigmenting agents were dissolved in methanol or 20 mM sodium phosphate buffer (NaPB, pH 7.4) at 10 μg/mL (final concentration). The UV-visible absorption spectra were analyzed using a Shimadzu UV-1700 spectrophotometer (Shimadzu Corp., Kyoto, Japan) and UV-transparent quartz cuvettes (Hellma, Müllheim, Germany) with a 10 mm path length. Each spectrum was corrected for solvent-specific baseline absorption. Molar extinction coefficients (MEC) were calculated using the highest absorption peaks between 290 and 700 nm at 10 μM.

[2] = ROS assay for photoreactivity (singlet oxygen and superoxide anion generation); assay type: physicochemical; details: for ROS assay: superoxide anion (O2^•−) / ROS assay: singlet oxygen (^1O2): 200 µM final concentration, mean ± SEM, n = 2; for ROS assay: superoxide anion (O2^•−): cut-off O2^•− ≥ 20 = photoreactive; for ROS assay: singlet oxygen (^1O2): cut-off ^1O2 ≥ 25 = photoreactive; for Photoreactivity classification from ROS assay: photoreactive if SO ≥ 25 and/or SA ≥ 20
Description: In addition to light absorption, the generation of reactive species from chemicals following the absorption of UV-visible light is seen as a key determinant for causing direct phototoxic reactions. The ROS assay can be used as an in chemico screening tool for evaluating the photoreactivity of chemicals. […] These depigmenting agents were tested at 200 μM (final concentration) to identify precipitation, coloration, or any other interference in the reaction mixture.
The ROS assay was performed as previously described in Aguiar et al. and the OECD ROS assay for photoreactivity protocol. Stock solutions of all substances were prepared at 10 mM in DMSO or 20 mM sodium phosphate buffer (NaPB, pH 7.4) and used within the same day. SO generation was detected by spectrophotometric measurement of RNO bleaching, followed by a decrease in the absorbance of RNO at 440 nm. SA generation was detected by observing the reduction of NBT to NBT^+, the formation of which can be monitored spectrophotometrically at 560 nm. The depigmenting agents were tested at a final concentration of 200 μM. When precipitation was observable (using a microscope) before light exposure, a lower concentration (20 μM) of the depigmenting agents was tested.
Photoreactivity of the test substances was evaluated according to the result (mean of triplicate determinations) from the ROS assay: a test substance was classified as a photoreactive substance when an SO value of 25 or more and/or an SA value of 20 or more was measured; in turn, it was considered to be a non-photoreactive substance when values of less than 25 for SO and less than 20 for SA were recorded.

[3] = test system: Tyrosinase from Agaricus bisporus; experiment: Tyrosinase inhibition assay (L-tyrosine substrate); assay type: biochemical; details: for % Inhib (150 µM) of tyrosinase activity: 150 µM compound, n = 3
Description: Sodium phosphate monobasic monohydrate was obtained from Fluka (Buchs, Switzerland). Sodium phosphate dibasic anhydrous and methanol were obtained from Carlo Erba Reagents (Val-de-Reuil, France). Imidazole, p-nitroso dimethylaniline (RNO), and nitro blue tetrazolium chloride (NBT) were purchased from Alfa Aesar (Ward Hill, MA, USA).
Tyrosinase inhibition assays were carried out as described in Rosa et al.. Briefly, 25 μL of tyrosinase enzyme solution (135 U/mL), 25 μL of ten serial concentrations of the compounds (dissolved in 0.1 M phosphate buffer pH 6.8 containing no more than 2.5% DMSO, yielding final concentrations of 0.3–150 μM), and 100 μL phosphate buffer were mixed in a 96-well plate and incubated at 37 ± 2 °C for 20 min. Then, 50 μL of 1.66 mM of tyrosine solution in 0.1 M phosphate buffer (pH 6.8) were added. Enzyme activity was measured at 490 nm every 10 min for 30 min in a Bio-Rad Model 680 Microplate Reader (Bio-Rad Laboratories, Inc., Hercules, CA, USA). In cases where the samples were very active at the minimum concentration tested, lower concentration ranges were assayed. […] The experiments were conducted in triplicate. For each concentration, enzyme activity was calculated as a percentage of the velocities compared to those of the assay using buffer without any inhibitor. […] The type of inhibition and inhibition parameters of the compounds, i.e., the Km and Vmax, were determined by Lineweaver–Burk plot analysis using various concentrations of L-tyrosine.

[4] = Cell viability (PrestoBlue) in B-16V melanocytes; details: mouse, B-16V melanocytes, IC50 for B-16V cell viability, 48 h treatment, 0–300 µM in DMSO
Description: (§1) Given that ABT is a glycosylated derivative of hydroquinone, there is a potential for the release of hydroquinone in vivo.
(§2) B-16V cells (DSMZ ACC-370, Braunschweig, Germany) were cultured in Dulbecco’s Modified Eagle’s Medium (DMEM) containing 3.7 g/L NaHCO3, 1.0 g/L d-glucose, 1 mM sodium pyruvate, and stable glutamine, supplemented with 10% (v/v) heat-inactivated fetal bovine serum (FBS), 50 U/mL penicillin, and 50 μg/mL streptomycin (all reagents from PAN-Biotech GmbH, Aidenbach, Germany). The cells were cultivated at 37 °C in a humidified atmosphere of 95% air and 5% CO2. Subculturing was performed twice a week, when the cells reached 70–80% confluence, through cell trypsinization with 0.25% Trypsin and 1 mM EDTA.4Na (PAN-Biotech GmbH, Aidenbach, Germany).
(§3) To evaluate cell viability, B-16V cells were seeded at a cell density of 3 × 10^4 cells/mL in 96-well plates and allowed to proliferate for 48 h. […] Then, PrestoBlue® reagent (Invitrogen, Waltham, MA, USA) was added to each well. When entering a living cell, the PrestoBlue® reagent is reduced from resazurin to resorufin, whose fluorescence is proportional to the number of metabolically active cells. Fluorescence was measured at an excitation/emission wavelength of 530/590 nm in an automated microplate reader (Synergy HT, Biotek Instruments Inc., Winooski, VT, USA).
(§4) GraphPad Prism 9.5.1 was used to fit non-linear regression to the data and calculate the IC50 values of depigmenting compounds for B-16V cell viability.

tyrosinase = details: cited from earlier work; for IC50: read-out: IC50 tyrosinase inhibition (literature)
B-16V melanocytes = experiment: Cell viability (PrestoBlue) in B-16V melanocytes; details: 48 h treatment, 10–1000 µM in water
Description: as §1, §2, §3, §4

B16 mouse melanoma cells = details: cited from earlier work

Structure (SMILES) | MEC (molar extinction coefficient) [1] | Absorbance (10 µg mL^−1) [1] | ROS assay: superoxide anion (O2^•−) [2] | ROS assay: singlet oxygen (^1O2) [2] | Photoreactivity classification from ROS assay [2] | % Inhib (150 µM) of tyrosinase activity [3] [%] | also measured
CCCCc1ccc(O)cc1O [4BR, 4-butylresorcinol] | ε = 3471 L mol^−1 cm^−1 | 0.2088 | 13 ± 1 | 1 ± 0 | non-photoreactive | 100 | Type of tyrosinase inhibition (Lineweaver-Burk plot) ([3]; Vmax constant, Km increases with inhibitor concentration): competitive inhibitor; IC50 at 48 h [4]: 97.6 ± 11.6 µM; IC50 (tyrosinase): 21 µM and 13.5 µM
O=C1O[C@H]([C@@H](O)CO)C(O)=C1O [AA, ascorbic acid, reference compound] | ε = 2793 L mol^−1 cm^−1 | 0.1586 | 26 | 671 | – | – | Prevention of chromophore formation in tyrosinase assay ([3]; 150 µM, cannot be interpreted uniquely as tyrosinase inhibition): 58.70%; Effect on B-16V cell viability (B-16V melanocytes): did not interfere with cell viability
O=C1O[C@H]([C@@H](O)CO)C(O)=C1O[C@H]1O[C@H](CO)[C@@H](O)[C@H](O)[C@H]1O [AA-2G, ascorbyl glucoside] | ε = 1025 L mol^−1 cm^−1 | 0.0303 | 1 ± 0 | 1 ± 1 | non-photoreactive | 11.17 | –
OC[C@H]1O[C@H](Oc2ccc(O)cc2)[C@H](O)[C@@H](O)[C@@H]1O [ABT, α-arbutin] | ε = 2004 L mol^−1 cm^−1 | 0.0736 | 0 ± 0 | 19 ± 1 | cannot be classified as photoreactive | 27.04 | Photoreactivity classification from ROS assay ([2]; listed as α-arbutin): non-photoreactive; Percentage of tyrosinase inhibition (literature) (tyrosinase; at 125 µM): ≈ 30%
C=C[C@@](C)(/C=C/c1ccc(O)cc1)CCC=C(C)C [BAK, bakuchiol] | – | 0.2203 | inconclusive | inconclusive | – | 52.59 | Solubility / precipitation in ROS assay reaction mixture ([2]; DMSO or 20 mM NaPB pH 7.4, reaction mixture for SO and SA, 200 µM, lowest concentration 20 µM): showed precipitation in the reaction mixture; IC50 at 48 h [4]: 43.4 ± 0.9 µM; IC50 (tyrosinase; at 1 mM of L-tyrosine): 37.2 ± 5.18 µM
O=c1cc(CO)occ1O [Kojic acid, kojic acid, reference compound] | – | – | – | – | – | 99.15 | –
NC[C@H]1CC[C@H](C(=O)O)CC1 [TA, tranexamic acid, reference compound] | ε = 380 L mol^−1 cm^−1 | 0.0242 | – | – | – | 13.20 | Effect on B-16V cell viability (B-16V melanocytes): did not interfere with cell viability
Oc1ccc(O)cc1 [hydroquinone] | – | – | – | – | – | – | Concentration achieving complete growth inhibition (B16 mouse melanoma cells): 1250 to 2500 ng/mL; Concentration initiating growth inhibition (B16 mouse melanoma cells): 625 ng/mL
